Entries after “also recorded” stand apart in the source; their conditions may differ. Residues, ends and D or L forms follow the SMILES beside them. *: point of attachment. CH2Cl = ClC*
Columns and labels:
Assay type in all cases: cell-based, human
U20S/centrin-GFP cells [1] = experiment: Abnormal centriole numbers in transiently transfected U20S/centrin-GFP cells after inhibitor treatment
Text: (§1) Cell Culture and Transfections. Normal human keratinocytes (NHKs) were isolated from neonatal foreskins and cultured as described previously (Jones, et al. 1997 Genes Dev 11, 2101-11). NHKs were transiently transfected using FuGENE 6 (Roche Molecular Biochemicals, Indianapolis, Ind.) according to manufacturer's instructions. The human osteosarcoma cell line U20S was obtained from the American Type Culture Collection (ATCC) and maintained in Dulbecco's modified Eagle medium (DMEM) supplemented with 10% fetal bovine serum, 50 units/ml penicillin and 50 μg/ml streptomycin. Stable populations expressing centrin-GFP were generated by transfecting U20S cells with 10 μg of a centrin-GFP construct using calcium phosphate co-precipitation (Chen, et al. 1987 Mol Cell Biol 7, 2745-2752) and expansion of stable clones after G418 selection. All transient transfection experiments in U20S/centrin-GFP cells were performed using calcium phosphate coprecipitation (Chen, 1987 Mol Cell Biol 7, 2745-2752). Expression plasmids used were c-Myc, E2F-1, HPV-16 E7, HPV-16 E6, or a hemagglutinin-tagged dominant-negative DP1 mutant (DP 1-HA). Empty vector controls (pCMVneo) were included in all experiments. In all transient transfection experiments, cells were co-transfected with either farnesylatable green fluorescent protein (GFP), DsRed fluorescent protein, or cyan fluorescent protein (CFP; all from Clontech, Inc., Palo Alto, Calif.) as indicated and only cells expressing the respective fluorescent protein were evaluated. The human Burkitt's lymphoma cell line GA-10 was obtained from ATCC and maintained in RPMI 1640 medium containing 10 mM HEPES and supplemented with 10% fetal bovine serum, 50 units/ml penicillin and 50 μg/ml streptomycin. Adapted GA-10 cells were obtained by cultivation of cells in the presence of 1 μM clastolactacystin β-lactone (CLBL; Sigma Corp., St. Louis, Mo.) or 0.1% dimethyl sulfoxide (DMSO; ICN, Inc., Costa Mesa, California).
Proteasome and TPPII inhibition. U20S/centrin-GFP cells were transiently transfected with expression plasmids as indicated using calcium phosphate coprecipitation, washed with PBS 14 hours after transfection, incubated in normal growth media for 8 hours, and incubated in the presence of the inhibitor for another 24 hours. For proteasome inhibition, clastolactacystin β-lactone (CLBL; Sigma Corp.) was used at a […] concentration dissolved in DMSO. The TPPII inhibitor H-Ala-Ala-Phe-chloromethylketone (AAF-CMK; Sigma Corp.) was used at a 1 or 10 μM concentration, respectively, dissolved in DMSO. TPPII inhibitors such as AAF-MCA (ala-ala-phe-methylcoumarin amide) are available from Peptides International, Inc., Louisville, Ky. […] Solvent controls (DMSO or water) were included in all experiments.
Whether this observed increase of cells with abnormal centrosome numbers results from a primary duplication error was further addressed by analyzing the ability of c-Myc to induce abnormal centriole synthesis under transient conditions. Centriole number abnormalities induced by c-Myc were compared to those obtained with different oncogenic stimuli which have been reported previously to deregulate centrosome duplication (Duensing, 2000 Proc Natl Acad USA 97, 10002-7). Besides c-Myc, each of HPV-16 E7, the cooperating oncogene HPV-16 E6, and E2F-1 were included in these experiments. U20S/centrin-GFP cells were transiently transfected with expression plasmids as indicated, and mitochondrial DsRed fluorescent protein was used as a transfection marker (FIGS. 2c,d). Since duplication of centrioles prior to a cell division gives rise to four centrioles, cells with more than four centrioles were considered to have an abnormal number of centrioles.
Analogous to cell cycle progression, centrosome duplication requires activity of the ubiquitin/proteasome machinery (Freed, et al. 1999 Gene Dev 13, 2242-57). […]

U20S/centrin-GFP cells [2] = experiment: DNA content / cell cycle profile by propidium iodide flow cytometry; conditions: 10 μM, 24 hours
Protocol: Flow cytometry. DNA content of cells was analyzed by propidium iodide staining followed by flow cytometry as described previously (Thompson, et al. 1997 Oncogene 15, 3025-35).

[3] = test system: Burkitt's lymphoma cell line GA-10; experiment: Viability of GA-10 cells grown with proteasome inhibitor (trypan blue exclusion)
Protocol: FIG. […] FIG. 5b is an immunoblot analysis of TPPII and c-Myc expression in GA-10 cells adapted to grow in the presence of 1 μM CLBL or 0.1% DMSO. FIG. 5c is a visualizations of centrosomes in GA-10 cells adapted to grow in the presence of 0.1% DMSO (c) or 1 μM CLBL right. Immunofluorescence for γ-tubulin is rhodamine red. Nuclei were stained with DAPI. […] Each bar indicates average+standard error of triplicate colony counts.
as §1, with “The human Burkitt's lymphoma cell line GA-10 was obtained from ATCC and maintained in RPMI 1640 medium containing 10 mM HEPES and supplemented with 10% fetal bovine serum, 50 units/ml penicillin and 50 μg/ml streptomycin. Adapted GA-10 cells were obtained by cultivation of cells in the presence of 1 μM clastolactacystin β-lactone (CLBL; Sigma Corp., St. Louis, Mo.) or 0.1% dimethyl sulfoxide (DMSO; ICN, Inc., Costa Mesa, California).” left out

GA-10 cells = experiment: Abnormal centrosome numbers in GA-10 cells by γ-tubulin immunofluorescence; conditions: GA-10 cells adapted to 1 μM CLBL; untreated 18.7%, DMSO 19.9%
Protocol: For immunofluorescence analysis, sections of formalin-fixed, paraffin-embedded tissue were processed as described previously (Duensing, 2000 Proc Natl Acad 801 USA 97, 10002-7). Cultured cells were either grown on coverslips or cytospin preparations were made from cells growing in suspension. Cells were fixed in 4% paraformaldehyde in PBS and permeabilized with 1% Triton-X 100 in PBS for 10 min each at room temperature. […] Ki-67 was detected using a mouse monoclonal antibody (clone Ki-67; Dako Cytomation California, Inc., Carpinteria, California) at a 1:100 dilution followed by a rhodomine red-labeled donkey anti-mouse secondary antibody as described above. […] Cells were analyzed using a Leica DMLB epifluorescence microscope equipped with a multiband and a CFP filter set (Omega Optical, Brattleboro, Vt.) and a Sony DKC5000 camera system. […]
The proportion of cells with abnormal centrosome numbers was determined using immunofluorescence microscopy for γ-tubulin. […]

TPPII = TPPII protein level in adapted GA-10 cells (immunoblot); conditions: GA-10 cells adapted to 1 μM CLBL
Protocol: Immunological Methods. Immunoblot analysis was performed as described previously (Jones et al., 1997). Antibodies used were directed against c-Myc (9E10; Covance/Babco, Berkeley, California), p53 (Ab-6; Oncogene Research Products, Inc., San Diego, Calif.), HPV-16 E7 (ED17; Santa Cruz Biotechnology, Inc., Santa Cruz, California), E2F-1 (C-20; Santa Cruz), HA (12CA5; Boehringer Mannheim, Mannheim, Germany), tripetidyl peptidase II (OEM Concepts, Inc.; Toms River, New Jersey), or Actin (C-2, Santa Cruz).
Based on observations herein that TPPII is required for c-Myc induced abnormal centriole duplication, the effect of growth of cells in the presence of a proteasome inhibitor on altered centrosome numbers, control of centrosome duplication, and cell viability was examined. Cells of a human t(8;14) positive, Epstein-Barr virus (EBV) negative Burkitt's lymphoma cell line GA-10 were used. Cells were grown in the presence of 1 μM CLBL (proteosome inhibitor clastolactacystin β-lactone) or with 0.1% DMSO as a solvent control.

U20S/centrin-GFP cells [4] = experiment: Simultaneous Ki-67 proliferation and centriole number assay in c-Myc transfected cells; conditions: 10 μM butabindide for 24 hours
Protocol: For immunofluorescence analysis, sections of formalin-fixed, paraffin-embedded tissue were processed as described previously (Duensing, 2000 Proc Natl Acad 801 USA 97, 10002-7). Cultured cells were either grown on coverslips or cytospin preparations were made from cells growing in suspension. Cells were fixed in 4% paraformaldehyde in PBS and permeabilized with 1% Triton-X 100 in PBS for 10 min each at room temperature. Cells were then blocked with 10% normal donkey serum (Jackson Immunoresearch, West Grove, Pa.) and incubated with a mouse monoclonal anti-γ-tubulin antibody (GTU-88; Sigma Corp.; St. Louis, Mo.) at a 1:2000 dilution overnight at 4° C. followed by a donkey anti-mouse rhodamine red conjugated secondary antibody (Jackson ImmunoResearch Laboratories, Inc., West Grove, Pa.) at a 1:100 dilution in PBS or a donkey anti-mouse FITC labeled secondary antibody at a 1:200 dilution in PBS for 2 hours at 37° C. Ki-67 was detected using a mouse monoclonal antibody (clone Ki-67; Dako Cytomation California, Inc., Carpinteria, California) at a 1:100 dilution followed by a rhodomine red-labeled donkey anti-mouse secondary antibody as described above. […] Cells were analyzed using a Leica DMLB epifluorescence microscope equipped with a multiband and a CFP filter set (Omega Optical, Brattleboro, Vt.) and a Sony DKC5000 camera system. […]

CLBL-adapted GA-10 cells [5] = experiment: Growth (viable cell number) of CLBL-adapted GA-10 cells; conditions: 0.1, 1.0, 10, 100 or 500 μM butabindide
Protocol: (§2) FIG. 5a is an analysis of viability of GA-10 cells grown in the presence of 1 μM CLBL or solvent control (0.1% DMSO) as determined by trypan blue exclusion. FIG. 5b is an immunoblot analysis of TPPII and c-Myc expression in GA-10 cells adapted to grow in the presence of 1 μM CLBL or 0.1% DMSO. FIG. 5c is a visualizations of centrosomes in GA-10 cells adapted to grow in the presence of 0.1% DMSO (c) or 1 μM CLBL right. Immunofluorescence for γ-tubulin is rhodamine red. Nuclei were stained with DAPI. […] Each bar indicates average+standard error of triplicate colony counts.
(§3) Centrosome duplication is necessary for orderly progression through mitosis and re-entry in the cell cycle (Hinchcliffe, et al. 2001 Genes Dev 15, 1167-81) in most mammalian cells. Whether TPPII activity is necessary for the growth of CLBL-adapted Burkitt's lymphoma cells was investigated.

CLBL-adapted GA-10 cells [6] = experiment: Soft agar colony formation (clonogenic assay); conditions: 10 μM butabindide, one week
Protocol: Clonogenic assay. For assessment of soft agar colony formation, adapted GA-10 cells were suspended in 37° C.
as §3

[7] = test system: CLBL-adapted Burkitt's lymphoma cells; experiment: Mitotic spindle formation / centrosome function; conditions: butabindide treated
Protocol: as §2, §3

For `C[C@H](N)C(=O)N[C@@H](C)C(=O)N[C@@H](Cc1ccccc1)C(=O)CCl` [AAF-CMK, H-Ala-Ala-Phe-chloromethylketone] (H-Ala-Ala-Phe-CH2Cl), the “Significance of decrease in abnormal centriole numbers, c-Myc transfected cells” value (U20S/centrin-GFP cells [1]; 1 μM AAF-CMK, p≦0.05) was “statistically significant”, the “Changes in abnormal centriole numbers in E2F-1 or HPV-16 E7 expressing cells” value (U20S/centrin-GFP cells [1]; E2F-1 or HPV-16 E7 transfected, AAF-CMK for 24 hours) was “not significant” and the “Proportion of c-Myc expressing cells with abnormal centriole numbers” value (U20S/centrin-GFP cells [1]; c-Myc transfected, 1 and 10 μM AAF-CMK for 24 hours) was “Reduction of the proportion of c-Myc expressing cells with abnormal centriole numbers”. For the same compound, the “Cell cycle profile (DNA content)” value (U20S/centrin-GFP cells [2]) was “neither treatment of cells with 10 μM AAF-CMK, nor with 10 μM butabindide, was found to substantially alter the cell cycle profile”.

For `CC(C)[C@H](O)[C@@]12NC(=O)[C@H](C)[C@@H]1OC2=O` [CLBL, clastolactacystin β-lactone], the “Decrease of abnormal centriole duplication driven by E2F-1” value (U20S/centrin-GFP cells [1]; E2F-1 transfected, 0.8 mM CLBL for 24 hours, p≦0.05) was 1.7 fold, the “Decrease of abnormal centriole duplication driven by HPV-16 E7” value (U20S/centrin-GFP cells [1]; HPV-16 E7 transfected, 0.8 mM CLBL for 24 hours, p≦0.01) was 2 fold and the “Proportion of cells with abnormal centriole numbers in cells expressing c-Myc” value (U20S/centrin-GFP cells [1]; c-Myc transfected, 0.8 mM CLBL for 24 hours) was “did not significantly reduce”. The “Cell viability of GA-10 cells” value ([3]; 1 μM CLBL) was “marked decrease of cell viability”, the “Time until cell survival was restored” value ([3]; 1 μM CLBL) was no more than 10 days and the “Cell viability of GA-10 cells at higher concentrations” value ([3]; higher concentrations of CLBL than 1 μM) was “massive cell death”. For the same compound, the “Proportion of cells with abnormal centrosome numbers” value (GA-10 cells) was 19.4% and the “Protein levels of TPPII” value (TPPII) was “increased protein levels of TPPII”.

With `CCCCNC(=O)[C@@H]1Cc2ccccc2N1C(=O)[C@@H](N)CC` [butabindide] the “Number of c-Myc expressing cells with abnormal centriole numbers” value (U20S/centrin-GFP cells [1]; c-Myc transfected, butabindide increasing concentrations up to 10 μM, 24 hours, p≦0.001) was “dose-dependent and statistically highly significant reduction; also recorded: completely blocks abnormal centriole duplication”, the “Cell cycle profile (DNA content)” value (U20S/centrin-GFP cells [2]) was “neither treatment of cells with 10 μM AAF-CMK, nor with 10 μM butabindide, was found to substantially alter the cell cycle profile” and the “Ki-67 negative growth arrested cells” value (U20S/centrin-GFP cells [4]) was “major increases of Ki-67 negative growth arrested cells were not observed”. The “Number of c-Myc expressing cells with abnormal centriole numbers (mostly Ki-67 positive)” value (U20S/centrin-GFP cells [4]; CFP transfection marker) was “decrease in the number of c-Myc expressing cells with abnormal centriole numbers”, the “Growth of CLBL-adapted GA-10 cells” value (CLBL-adapted GA-10 cells [5]) was “reduced the growth of CLBL-adapted GA-10 cells in a dose dependent manner” and the “Colony formation in soft agar” value (CLBL-adapted GA-10 cells [6]) was “significantly suppressed colony formation”. The “Spindle formation in treated cells” value [7] was “abrogation of spindle formation” and the “Cells unable to nucleate a microtubule spindle” value ([7]; 44% without) was 66%.
